In the NIST ThermoML archive (doi:10.1021/je101184s):
± gives the expanded uncertainty stated by the source.

assay: relative permittivity at zero frequency (dimensionless); details: 298.15 K; 101.33 kPa; Liquid; Coaxial cylinder capacitor

Row | Compound | relative permittivity at zero frequency
1 | CC(=O)O.OCCN(CCO)CCO [triethanolammonium acetate] | 31 ± 3
2 | CCCCn1cc[n+](C)c1.F[P-](F)(F)(F)(F)F [1-butyl-3-methylimidazolium hexafluorophosphate] | 14 ± 1.4
3 | O=[N+]([O-])[O-].[NH3+]CCO [ethanolammonium nitrate] | 60.9 ± 4
4 | CCCCn1cc[n+](C)c1.O=S(=O)([O-])C(F)(F)F [1-butyl-3-methylimidazolium trifluoromethanesulfonate] | 12.9 ± 1
5 | CCCCn1cc[n+](C)c1.N#C[S-] [1-butyl-3-methylimidazolium thiocyanate] | 13.7 ± 1.6
6 | CCCCn1cc[n+](C)c1C.F[B-](F)(F)F [1-butyl-2,3-dimethylimidazolium tetrafluoroborate] | 13.3 ± 1.2
7 | CCOS(=O)(=O)[O-].CCn1cc[n+](C)c1 [1-ethyl-3-methylimidazolium ethyl sulfate] | 35 ± 3
8 | CCCCn1c(C)c(C)[n+](C)c1C.O=S(=O)([N-]S(=O)(=O)C(F)(F)F)C(F)(F)F | 15 ± 1.6
9 | CCn1cc[n+](C)c1C.O=S(=O)([N-]S(=O)(=O)C(F)(F)F)C(F)(F)F | 12.8 ± 0.8
10 | CCCCn1cc[n+](C)c1C.F[P-](F)(F)(F)(F)F [1-butyl-2,3-dimethylimidazolium hexafluorophosphate] | 9.4 ± 2
11 | CCCCn1cc[n+](C)c1.F[B-](F)(F)F [1-butyl-3-methylimidazolium tetrafluoroborate] | 13.9 ± 0.8
12 | Br.Cn1ccnc1 [1-methylimidazolium bromide] | 16.6 ± 2.4
13 | CC(O)C(=O)O.OCCN(CCO)CCO [triethanolamine lactate] | 59.7 ± 6
14 | CCCCS(=O)(=O)[O-].CCn1cc[n+](C)c1 [1-ethyl-3-methylimidazolium butylsulfonate] | 30 ± 3
15 | CCOP(=O)([O-])OCC.CCn1cc[n+](C)c1 [1-ethyl-3-methylimidazolium diethyl phosphate] | 16.9 ± 1.6
16 | COP(=O)([O-])OC.Cn1cc[n+](C)c1 [1,3-dimethylimidazolium dimethylphosphate] | 29.6 ± 3
17 | CCn1cc[n+](C)c1.O=S(=O)([O-])C(F)(F)F [1-ethyl-3-methylimidazolium trifluoromethanesulfonate] | 16.5 ± 1
18 | CC(=O)[O-].[NH3+]CCO [2-hydroxyethylammonium acetate] | 58.3 ± 5
19 | C[n+]1ccn(CCO)c1.F[B-](F)(F)F [1-(2-hydroxyethyl)-3-methylimidazolium tetrafluoroborate] | 23.3 ± 2
20 | CC(O)C(=O)[O-].[NH3+]CCO (stereo unspecified) [2-hydroxyethylammonium lactate] | 85.6 ± 8
21 | Cl.Cn1ccnc1 [1-methylimidazolium chloride] | 13.8 ± 2
22 | CCCC[N+]1(C)CCCC1.N#CN=C=[N-] [1-butyl-1-methylpyrrolidinium dicyanamide] | 18 ± 1.6
23 | CCCC[n+]1c(C)c(C)n(C)c1C.F[B-](F)(F)F | 12 ± 1.2
24 | CCn1cc[n+](C)c1.O=S(=O)([O-])O [1-ethyl-3-methylimidazolium hydrogen sulfate] | 18.4 ± 2
25 | CCCCC[N+](CC)(CC)CC.O=S(=O)([N-]S(=O)(=O)C(F)(F)F)C(F)(F)F [triethylpentylammonium bis(trifluoromethylsulfonyl)imide] | 12.5 ± 1.4
26 | CCCCn1cc[n+](C)c1C.O=S(=O)([N-]S(=O)(=O)C(F)(F)F)C(F)(F)F | 14 ± 1.6
